Measured values taken from the NIST ThermoML archive (doi:10.1021/je700406p).

Conditions: Liquid, Vibrating tube method

CC(C)(N)CO [2-amino-2-methylpropan-1-ol]
mass density [kg/m3]
Conditions | 313.06 K | 322.98 K | 332.91 K | 342.84 K | 352.79 K | 362.65 K
500 kPa | – | 922.7 | 914 | 905.4 | 896.8 | –
504 kPa | – | – | – | – | – | 888
1000 kPa | 931.4 | 922.8 | 914.4 | 905.7 | 897.2 | –
1002 kPa | – | – | – | – | – | 888.4
2000 kPa | 931.9 | 923.4 | 915 | 906.4 | 897.9 | 889
3000 kPa | 932.4 | 924 | 915.6 | 907 | 898.5 | 889.7
4000 kPa | 932.9 | 924.5 | 916.1 | 907.6 | – | 890.5
4001 kPa | – | – | – | – | 899.2 | –
5000 kPa | 933.5 | 925.1 | 916.7 | 908.3 | 899.9 | 891.2
6000 kPa | 933.9 | 925.7 | 917.3 | 908.9 | 900.5 | 891.8
7000 kPa | 934.5 | 926.2 | 918 | 909.5 | – | 892.5
7001 kPa | – | – | – | – | 901.2 | –
8000 kPa | 935 | 926.8 | 918.5 | – | 901.8 | –
8001 kPa | – | – | – | 910.1 | – | 893.2
9007 kPa | 935.5 | 927.4 | – | – | – | –
9009 kPa | – | – | 919.1 | 910.7 | 902.4 | –
9010 kPa | – | – | – | – | – | 893.9
10002 kPa | – | 927.8 | – | – | – | –
10003 kPa | 936 | – | 919.7 | 911.3 | 903.1 | 894.6
11000 kPa | 936.6 | 928.4 | – | – | – | –
11001 kPa | – | – | – | 911.9 | 903.7 | 895.2
11002 kPa | – | – | 920.2 | – | – | –
12000 kPa | 937 | 928.9 | – | 912.5 | 904.3 | 895.8
12001 kPa | – | – | 920.8 | – | – | –
13000 kPa | 937.6 | 929.5 | 921.3 | 913.1 | – | –
13001 kPa | – | – | – | – | 904.9 | 896.5
14000 kPa | 938.1 | 930.1 | 921.9 | 913.6 | 905.5 | 897.1
15002 kPa | 938.6 | – | 922.4 | – | 906.1 | –
15003 kPa | – | 930.6 | – | 914.3 | – | 897.8
16000 kPa | 939.1 | – | – | – | – | –
16001 kPa | – | – | 923 | 914.8 | 906.7 | 898.4
16006 kPa | – | 931.1 | – | – | – | –
17000 kPa | – | – | – | – | – | 899.1
17001 kPa | 939.7 | 931.6 | 923.5 | 915.3 | 907.4 | –
18002 kPa | 940.2 | 932.1 | 924.1 | 915.9 | 907.9 | 899.7
18997 kPa | – | – | – | – | 908.5 | –
19000 kPa | 940.6 | 932.6 | 924.6 | 916.5 | – | 900.3
20029 kPa | 941.1 | – | – | – | – | –
20030 kPa | – | 933.2 | 925.2 | 917.1 | 909.1 | 901
21001 kPa | – | – | – | – | 909.7 | –
21002 kPa | – | – | 925.6 | – | – | –
21004 kPa | 941.7 | – | – | – | – | 901.6
21005 kPa | – | 933.7 | – | 917.6 | – | –
22004 kPa | 942.1 | 934.1 | 926.2 | 918.1 | 910.3 | 902.2
23000 kPa | – | – | 926.7 | 918.7 | 910.9 | 902.8
24003 kPa | – | – | – | – | – | 903.3
24004 kPa | 943.1 | 935.2 | 927.3 | 919.2 | 911.4 | –
